ChEMBL document CHEMBL6071160, “Identification of a novel 10-hydroxyevodiamine prodrug as a potent topoisomerase inhibitor with improved aqueous solubility for treatment of hepatocellular carcinoma” (Eur J Med Chem, 2024)
Active and inactive are the calls of the source. The calls are words filed in the database; no cut-off is given here.

What was measured:
HepG2 = test: Antiproliferative activity against human HepG2 cells assessed as inhibition of cell proliferation incubated for 72 hrs by MTT assay; assay type: functional, cell-based; conditions: HepG2, 72 h
[1] = Aqueous solubility of the compound […] measured after 72 hrs in shaking by HPLC analysis; assay type: physicochemical
[2] = Antiproliferative activity against human Doxorubicin-resistant SMMC-7721 cell assessed as inhibition of cell proliferation incubated for 72 hrs by MTT assay; assay type: functional, cell-based; conditions: SMMC-7721, 72 h
Huh-7 [3] = test: Antiproliferative activity against human Huh-7 cells assessed as inhibition of colony formation at 10 to 40 nM measured 1 to 2 weeks by human tumor clonogenic assays (HTCA); assay type: functional, cell-based; conditions: dose 10-40 nM, time 1-2 weeks
[4] = Prodrug conversion in rat plasma assessed as half life by measuring parent 10-hydroxyevodiamine derivative release by HPLC analysis; assay type: ADME, cell-free
[5] = Chemical stability of compound at pH 5.5 assessed as residual rate measured after 2 days; assay type: physicochemical; conditions: buffer, time 2 day, read-out: Stability
[6] = Chemical stability of compound at pH 7.4 assessed as residual rate measured after 2 days; assay type: physicochemical; conditions: buffer, time 2 day, read-out: Stability
[7] = Half life in Sprague-Dawley rat at 10 mg/kg, ip measured upto 24 hrs by LC-MS/MS analysis; assay type: ADME, organism-based; conditions: in vivo
[8] = MRT (0 to t) in Sprague-Dawley rat at 10 mg/kg, ip measured upto 24 hrs by LC-MS/MS analysis; assay type: ADME, organism-based; conditions: in vivo
[9] = Toxicity in BALB/c nude mouse subcutaneously injected with human Huh-7 cells assessed as change in body weight at 10 mg/kg, ip administered once daily measured after 14 days; assay type: organism-based; conditions: in vivo, 336 h, time 14 day
[10] = Toxicity in BALB/c nude mouse subcutaneously injected with human Huh-7 cells assessed as change in body weight at 40 mg/kg, ip administered once other day measured after 14 days; assay type: organism-based; conditions: in vivo, 336 h, time 14 day
Huh-7 [11] = test: Induction of cell cycle arrest in human Huh-7 cells assessed as accumulation of cells at G1 phase 80 nM measured after 24 hrs by flow cytometric assay (reference value: 63.01%); assay type: functional
Huh-7 [12] = test: Induction of cell cycle arrest in human Huh-7 cells assessed as accumulation of cells at S phase 20 nM measured after 24 hrs by flow cytometric assay (reference value: 23.33%); assay type: functional
SK-HEP1 [13] = test: Induction of cell cycle arrest in human SK-HEP1 cells assessed as accumulation of cells at G1 phase 80 nM measured after 24 hrs by flow cytometric assay (reference value: 47.55%); assay type: functional
SK-HEP1 [14] = test: Induction of cell cycle arrest in human SK-HEP1 cells assessed as accumulation of cells at G1 phase 20 nM measured after 24 hrs by flow cytometric assay (reference value: 47.55%); assay type: functional
SK-HEP1 [15] = test: Induction of cell cycle arrest in human SK-HEP1 cells assessed as accumulation of cells at S phase 40 nM measured after 24 hrs by flow cytometric assay (reference value: 30.04%); assay type: functional
Huh-7 [16] = test: Induction of apoptosis in human Huh-7 cells assessed as early apoptotic cells at 80 nM measured after 24 hrs by Annexin-V-FITC/PI analysis (reference value: 1.04%); assay type: functional
Huh-7 [17] = test: Induction of apoptosis in human Huh-7 cells assessed as necrotic cells at 80 nM measured after 24 hrs by Annexin-V-FITC/PI analysis (reference value: 0.27%); assay type: functional
Huh-7 [18] = test: Induction of apoptosis in human Huh-7 cells assessed as late apoptotic cells at 20 nM measured after 24 hrs by Annexin-V-FITC/PI analysis (reference value: 1.23%); assay type: functional
SK-HEP1 [19] = test: Induction of apoptosis in human SK-HEP1 cells assessed as early apoptotic cells at 20 nM measured after 24 hrs by Annexin-V-FITC/PI analysis (reference value: 1.45%); assay type: functional
SK-HEP1 [20] = test: Induction of apoptosis in human SK-HEP1 cells assessed as necrotic cells at 20 nM measured after 24 hrs by Annexin-V-FITC/PI analysis (reference value: 0.70%); assay type: functional
SK-HEP1 [21] = test: Induction of apoptosis in human SK-HEP1 cells assessed as late apoptotic cells at 40 nM measured after 24 hrs by Annexin-V-FITC/PI analysis (reference value: 0.64%); assay type: functional
SK-HEP1 [22] = test: Induction of apoptosis in human SK-HEP1 cells assessed as necrotic cells at 40 nM measured after 24 hrs by Annexin-V-FITC/PI analysis (reference value: 0.70%); assay type: functional
Huh-7 [23] = test: Induction of apoptosis in human Huh-7 cells assessed as loss of mitochondrial membrane potential by measuring JC-1 stained cells at 80 nM measured after 24 hrs by JC-1 staining based flow cytometry (reference value: 2.27%); assay type: functional
SK-HEP1 [24] = test: Induction of apoptosis in human SK-HEP1 cells assessed as loss of mitochondrial membrane potential by measuring JC-1 stained cells at 20 nM measured after 24 hrs by JC-1 staining based flow cytometry (reference value: 0.49%); assay type: functional
Huh-7 [25] = test: Induction of apoptosis in human Huh-7 cells assessed as ROS generation by measuring DCFH2-DA stained cells at 80 nM measured after 24 hrs […] (reference value: 0.45%); assay type: functional
Huh-7 [26] = test: Induction of apoptosis in human Huh-7 cells assessed as ROS generation by measuring DCFH2-DA stained cells at 40 nM measured after 24 hrs […] (reference value: 0.45%); assay type: functional
Huh-7 [27] = test: Inhibition of cell migration in human Huh-7 cells at 40 nM measured for 24 hrs by scratch wound healing assay; assay type: functional, cell-based
Huh-7 [28] = test: Inhibition of cell invasion in human Huh-7 cells assessed as decrease in number of cells migration into lower compartment at 10 nM measured after 24 hrs by transwell assay; assay type: functional, cell-based
Huh-7 [29] = test: Inhibition of cell invasion in human Huh-7 cells assessed as decrease in number of cells migration into lower compartment at 20 nM measured after 24 hrs by transwell assay; assay type: functional, cell-based
SK-HEP1 [30] = test: Inhibition of cell invasion in human SK-HEP1 cells assessed as decrease in number of cells migration into lower compartment at 10 nM measured after 24 hrs by transwell assay; assay type: functional, cell-based
[31] = Toxicity in BALB/c nude mouse subcutaneously injected with human Huh-7 cells assessed as changes in heart tissue at 10 mg/kg, ip administered once daily measured after 14 days by H and E staining based assay; assay type: organism-based; conditions: in vivo, 336 h, time 14 day
[32] = Toxicity in BALB/c nude mouse subcutaneously injected with human Huh-7 cells assessed as changes in lung tissue at 10 mg/kg, ip administered once daily measured after 14 days by H and E staining based assay; assay type: organism-based; conditions: in vivo, 336 h, time 14 day
[33] = Toxicity in BALB/c nude mouse subcutaneously injected with human Huh-7 cells assessed as change in platelet level at 10 mg/kg, ip administered once daily measured after 14 days; assay type: organism-based; conditions: in vivo, 336 h, time 14 day
[34] = Toxicity in BALB/c nude mouse subcutaneously injected with human Huh-7 cells assessed as change in red blood cells at 10 mg/kg, ip administered once daily measured after 14 days; assay type: organism-based; conditions: in vivo, 336 h, time 14 day
[35] = Toxicity in BALB/c nude mouse subcutaneously injected with human Huh-7 cells assessed as change in body weight at 40 mg/kg, ip administered once daily measured after 14 days; assay type: organism-based; conditions: in vivo, 336 h, time 14 day

Question: With `C[N+](C)(C)CCC(=O)Oc1ccc2[nH]c3c(c2c1)CCN1C(=O)c2cc(F)cc(F)c2N(c2cccc(F)c2)C31.[I-]` (stereo unspecified) as the compound, how does the IC50 (HepG2) read?
Answer: 0.09 µM

Question: And the solubility thermodynamic at 72 h [1]?
Answer: 967 µg/mL

Question: And the IC50 [2]?
Answer: 0.11 µM

Question: And the Activity (Huh-7 [3])?
Answer: Active

Question: What about the t1/2 [4] of the same compound?
Answer: 0.5 h

Question: And the remaining at 48 h [5]?
Answer: 55.8%

Question: And the remaining at 48 h [6]?
Answer: 43.9%

Question: What about the half-life [7] of the same compound?
Answer: 3.15 h

Question: And the MRT last at 24 h [8]?
Answer: 4.64 h

Question: And the Activity [9]?
Answer: Non-Toxic

Question: What about the Activity [10] of the same compound?
Answer: Non-Toxic

Question: And the Activity (Huh-7 [11])?
Answer: 6.79%

Question: What about the Activity (Huh-7 [12]) of the same compound?
Answer: 27.35%

Question: And the Activity (SK-HEP1 [13])?
Answer: 13.31%

Question: What about the Activity (SK-HEP1 [14]) of the same compound?
Answer: 47.61%

Question: What about the Activity (SK-HEP1 [15]) of the same compound?
Answer: 31.15%

Question: What about the Activity (Huh-7 [16]) of the same compound?
Answer: 7.8%

Question: What about the Activity (Huh-7 [17]) of the same compound?
Answer: 0.83%

Question: What about the Activity (Huh-7 [18]) of the same compound?
Answer: 2.03%

Question: And the Activity (SK-HEP1 [19])?
Answer: 1.59%

Question: And the Activity (SK-HEP1 [20])?
Answer: 0.47%

Question: And the Activity (SK-HEP1 [21])?
Answer: 1.31%

Question: What about the Activity (SK-HEP1 [22]) of the same compound?
Answer: 0.49%

Question: What about the Activity (Huh-7 [23]) of the same compound?
Answer: 12.52%

Question: What about the Activity (SK-HEP1 [24]) of the same compound?
Answer: 0.78%

Question: And the Activity (Huh-7 [25])?
Answer: 17.92%

Question: What about the Activity (Huh-7 [26]) of the same compound?
Answer: 1.09%

Question: And the inhibition (Huh-7 [27])?
Answer: Active

Question: What about the inhibition (Huh-7 [28]) of the same compound?
Answer: Active

Question: And the inhibition (Huh-7 [29])?
Answer: Active

Question: What about the inhibition (SK-HEP1 [30]) of the same compound?
Answer: Active

Question: What about the Activity [31] of the same compound?
Answer: Non-Toxic

Question: And the Activity [32]?
Answer: Non-Toxic

Question: And the Activity [33]?
Answer: Non-Toxic

Question: What about the Activity [34] of the same compound?
Answer: Non-Toxic

Question: And the Activity [35]?
Answer: Toxic
